Assay results taken from ChEMBL document CHEMBL1201862, “PubChem BioAssay data set” (2004).
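Where inhibition never reached the appropriate level, the endpoint shown equals the highest concentration tested. Otherwise, values were interpolated linearly from a five-concentration, 48-hour dose response in 96-well plates. Abbreviation: GI50, concentration required for 50% inhibition of growth.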 Active and inactive are the calls of the source. Rule as the data show it: active = GI50 up to about 1.1 µM and inactive = higher.

Assays:
Assay in all cases: growth of human tumour cells (NCI), 48 h
SK-MEL-28 = test system: SK-MEL-28
MCF7 = test system: MCF7
HT-29 = test system: HT-29
U-251 = test system: U-251
HCT-15 = test system: HCT-15
PC-3 = test system: PC-3
SR = test system: SR
KM12 = test system: KM12
SF-539 = test system: SF-539
HOP-92 = test system: HOP-92
MDA-MB-231 = test system: MDA-MB-231
RPMI-8226 = test system: RPMI-8226
OVCAR-5 = test system: OVCAR-5
UACC-257 = test system: UACC-257
T47D = test system: T47D
ACHN = test system: ACHN
OVCAR-3 = test system: OVCAR-3
A549 = test system: A549
UO-31 = test system: UO-31
Hs-578T = test system: Hs-578T
NCI-H460 = test system: NCI-H460
SNB-75 = test system: SNB-75
SK-MEL-2 = test system: SK-MEL-2
Malme-3M = test system: Malme-3M
TK-10 = test system: TK-10
EKVX = test system: EKVX
NCI-H522 = test system: NCI-H522
HCC 2998 = test system: HCC 2998
IGROV-1 = test system: IGROV-1
M14 = test system: M14
HOP-62 = test system: HOP-62
COLO 205 = test system: COLO 205
HL-60 = test system: HL-60
A498 = test system: A498
SNB-19 = test system: SNB-19
CCRF-CEM = test system: CCRF-CEM
UACC-62 = test system: UACC-62
SF-268 = test system: SF-268
NCI-H226 = test system: NCI-H226
MDA-N = test system: MDA-N
NCI/ADR-RES = test system: NCI/ADR-RES
MOLT-4 = test system: MOLT-4
K562 = test system: K562
DU-145 = test system: DU-145
NCI-H23 = test system: NCI-H23
SK-MEL-5 = test system: SK-MEL-5
MDA-MB-435 = test system: MDA-MB-435
LOX IMVI = test system: LOX IMVI
SF-295 = test system: SF-295
OVCAR-4 = test system: OVCAR-4
OVCAR-8 = test system: OVCAR-8
BT-549 = test system: BT-549
786-0 = test system: 786-0
SN12C = test system: SN12C
SW-620 = test system: SW-620
CAKI-1 = test system: CAKI-1
SK-OV-3 = test system: SK-OV-3
HCT-116 = test system: HCT-116
RXF 393 = test system: RXF 393

## C=CCOc1ccc(C2(O)c3ccccc3C3=NCCCN32)cc1 (stereo unspecified)
SK-MEL-28
  GI50: 24.5 µM (inactive)
MCF7
  GI50: 43.7 µM (inactive)
HT-29
  GI50: > 65.9 µM (inactive)
U-251
  GI50: 43.2 µM (inactive)
HCT-15
  GI50: > 62.2 µM
PC-3
  GI50: 33.5 µM (inactive)
SR
  GI50: 25.2 µM (inactive)
KM12
  GI50: 44.5 µM (inactive)
SF-539
  GI50: 56 µM (inactive)
HOP-92
  GI50: 43.6 µM (inactive)
MDA-MB-231
  GI50: > 63 µM (inactive)
RPMI-8226
  GI50: 26.4 µM (inactive)
OVCAR-5
  GI50: 72.4 µM (inactive)
UACC-257
  GI50: 21.4 µM (inactive)
T47D
  GI50: 27.9 µM (inactive)
ACHN
  GI50: 41.6 µM (inactive)
OVCAR-3
  GI50: 46.3 µM (inactive)
A549
  GI50: 55.3 µM (inactive)
UO-31
  GI50: 51.8 µM (inactive)
Hs-578T
  GI50: > 73.8 µM (inactive)
NCI-H460
  GI50: > 100 µM (inactive)
SNB-75
  GI50: 32 µM (inactive)
SK-MEL-2
  GI50: 20.3 µM (inactive)
Malme-3M
  GI50: 12.3 µM (inactive)
TK-10
  GI50: > 100 µM (inactive)
EKVX
  GI50: 80.5 µM (inactive)
NCI-H522
  GI50: 21.2 µM (inactive)
HCC 2998
  GI50: 24.6 µM (inactive)
IGROV-1
  GI50: 28.6 µM (inactive)
M14
  GI50: 18.1 µM (inactive)
HOP-62
  GI50: 60.5 µM (inactive)
COLO 205
  GI50: 19.9 µM (inactive)
HL-60
  GI50: 35.7 µM (inactive)
A498
  GI50: > 100 µM (inactive)
SNB-19
  GI50: 47.8 µM (inactive)
CCRF-CEM
  GI50: 38 µM (inactive)
UACC-62
  GI50: 25.7 µM (inactive)
SF-268
  GI50: > 61.4 µM (inactive)
NCI-H226
  GI50: > 77.1 µM (inactive)
MDA-N
  GI50: 36.1 µM (inactive)
NCI/ADR-RES
  GI50: > 100 µM (inactive)
MOLT-4
  GI50: 33.2 µM (inactive)
K562
  GI50: 32.4 µM (inactive)
DU-145
  GI50: > 100 µM (inactive)
NCI-H23
  GI50: 60.1 µM (inactive)
SK-MEL-5
  GI50: 22.1 µM (inactive)
MDA-MB-435
  GI50: 30.1 µM (inactive)
LOX IMVI
  GI50: 48.8 µM (inactive)
SF-295
  GI50: 51.5 µM (inactive)
OVCAR-4
  GI50: > 71 µM (inactive)
OVCAR-8
  GI50: > 100 µM (inactive)
BT-549
  GI50: > 100 µM (inactive)
786-0
  GI50: 38.3 µM (inactive)
SN12C
  GI50: > 73.6 µM (inactive)
SW-620
  GI50: 44 µM (inactive)
CAKI-1
  GI50: > 62.8 µM (inactive)
SK-OV-3
  GI50: > 95.9 µM (inactive)
HCT-116
  GI50: 49.9 µM (inactive)

## O=C(C1=C(C(=O)c2ccccc2)SC2(S1)C(C(=O)c1ccccc1)=C(C(=O)c1ccccc1)Sc1c2ssc1=O)c1ccccc1
SK-MEL-28
  GI50: > 100 µM (inactive)
MCF7
  GI50: > 100 µM (inactive)
HT-29
  GI50: > 100 µM (inactive)
U-251
  GI50: 32.6 µM (inactive)
HCT-15
  GI50: 64.9 µM
PC-3
  GI50: > 100 µM (inactive)
SR
  GI50: 9.51 µM (inactive)
KM12
  GI50: 29.8 µM (inactive)
RXF 393
  GI50: 34.8 µM (inactive)
SF-539
  GI50: 24.4 µM (inactive)
HOP-92
  GI50: > 100 µM (inactive)
MDA-MB-231
  GI50: 78.9 µM (inactive)
OVCAR-5
  GI50: 26.8 µM (inactive)
UACC-257
  GI50: > 100 µM (inactive)
T47D
  GI50: 97.7 µM (inactive)
ACHN
  GI50: 37.5 µM (inactive)
OVCAR-3
  GI50: 67.6 µM (inactive)
A549
  GI50: 30.5 µM (inactive)
UO-31
  GI50: 22.4 µM (inactive)
Hs-578T
  GI50: > 100 µM (inactive)
NCI-H460
  GI50: 31.5 µM (inactive)
SNB-75
  GI50: 36.7 µM (inactive)
SK-MEL-2
  GI50: 99.1 µM (inactive)
Malme-3M
  GI50: > 100 µM (inactive)
TK-10
  GI50: 70.1 µM (inactive)
EKVX
  GI50: > 100 µM (inactive)
NCI-H522
  GI50: 26.7 µM (inactive)
HCC 2998
  GI50: 55.8 µM (inactive)
IGROV-1
  GI50: > 100 µM (inactive)
M14
  GI50: 37.3 µM (inactive)
HOP-62
  GI50: > 100 µM (inactive)
COLO 205
  GI50: > 100 µM (inactive)
HL-60
  GI50: 11.2 µM (inactive)
A498
  GI50: 17.2 µM (inactive)
SNB-19
  GI50: 24.6 µM (inactive)
CCRF-CEM
  GI50: 8.34 µM (inactive)
UACC-62
  GI50: 22.4 µM (inactive)
SF-268
  GI50: 67.5 µM (inactive)
NCI-H226
  GI50: 27 µM (inactive)
MDA-N
  GI50: 41.1 µM (inactive)
NCI/ADR-RES
  GI50: > 100 µM (inactive)
MOLT-4
  GI50: 1.11 µM (active)
K562
  GI50: 30.4 µM (inactive)
DU-145
  GI50: 72.8 µM (inactive)
NCI-H23
  GI50: > 100 µM (inactive)
SK-MEL-5
  GI50: 43.6 µM (inactive)
MDA-MB-435
  GI50: 70.6 µM (inactive)
LOX IMVI
  GI50: > 100 µM (inactive)
SF-295
  GI50: 33.5 µM (inactive)
OVCAR-4
  GI50: 36.7 µM (inactive)
OVCAR-8
  GI50: 44.5 µM (inactive)
BT-549
  GI50: 80.4 µM (inactive)
786-0
  GI50: 31.1 µM (inactive)
SN12C
  GI50: 26.7 µM (inactive)
SW-620
  GI50: 22 µM (inactive)
CAKI-1
  GI50: > 100 µM (inactive)
SK-OV-3
  GI50: 49.3 µM (inactive)
HCT-116
  GI50: 82.4 µM (inactive)
